Measured values: patent US20260055111A1, “CRYSTALLINE FORM OF PYRAZOLOPYRIMIDINE ESTER COMPOUND AND METHODS OF PREPARING THE SAME” (Shanghai Maius Pharmaceutical Co. Ltd., priority 2022, published 2026)
“Also recorded” adds a separate entry of the source.

Tests used:
[1] = Stability study: change in purity of solid forms after storage under different conditions; format: physicochemical; conditions: for Purity, Initial (Day 0): before storage; for Overall stability / degree of degradation compared with other forms: forced degradation conditions of the stability study; for Purity, Room Temperature (Day 10): stored at room temperature for 10 days; for Purity, In Light (Day 10): stored in light for 10 days
Protocol: Samples of the amorphous and crystalline (Forms I and II) compound of formula (I) were stored under different conditions.
Storage conditions for the crystalline form Form II: at 60° C. for 10 days; at 60° C. and 75% RH (relative humidity) for 10 days; in light for 10 days; and at room temperature for 10 days.
Storage conditions for the amorphous and crystalline (Form I) forms: at 40° C. for 10 days; at 60° C. and 75% RH for 10 days; in light for 10 days; and at room temperature for 10 days.

[2] = Hygroscopicity by dynamic vapor sorption (DVS), with XRPD before and after; format: physicochemical
[3] = cited from earlier work
[4] = stored at 60° C. and 75% RH for 10 days
[5] = stored at room temperature and in light for 10 days

Compound | Purity, Initial (Day 0) [1] [%] | Stability in words ([1]; degradation conditions such as high-temperature and high-humidity) | Overall stability / degree of degradation compared with other forms [1] | Purity, 60° C. + 75% RH (Day 10) [1, 4] [%] | Purity, 60° C. (Day 10) ([1]; stored at 60° C. for 10 days) [%] | Stability in words [1, 5] | Purity, Room Temperature (Day 10) [1] [%] | Purity, In Light (Day 10) [1] [%] | XRPD pattern before and after the DVS determination [2] | Purity, 40° C. (Day 10) ([1]; stored at 40° C. for 10 days) [%] | Hygroscopicity [2] | Degradation in words ([1]; stored at 40° C. for 10 days, listed as amorphous) | Degradation in words ([1]; stored at 40° C. for 10 days, listed as amorphous compound) | Degradation in words [1, 4] | 4-AAM AUC ([3]; AUC of the active metabolite 4-AAM, among the prodrugs of CN 202111131059.0) | AUC of the prodrug itself ([3]; among the prodrugs of CN 202111131059.0) | Rate of hydrolysis in blood ([3]; among the pyrazolopyrimidine ester prodrugs of CN 202111131059.0)
C=CC(=O)N1CCC[C@@H](n2nc(-c3ccc(Oc4ccccc4)cc3)c3c(NC(=O)OCCCC)ncnc32)C1 [Form II, 1-[(3R)-3-[4-(butoxycarbonyl)-amino-3-(4-phenoxyphenyl)-1H-pyrazolo[3,4-d]pyrimidin-1-yl]-1-piperidinyl]-2-propen-1-one] | 99.13 | stable | lower degree of degradation than the amorphous form; also recorded: obviously better than the amorphous form and even better than Form I | 97.80 | 98.90 | more stable | 99.13 | 99.17 | remained the same | – | – | – | – | – | – | – | –
C=CC(=O)N1CCC[C@@H](n2nc(-c3ccc(Oc4ccccc4)cc3)c3c(NC(=O)OCCCC)ncnc32)C1 [Form I, 1-[(3R)-3-[4-(butoxycarbonyl)-amino-3-(4-phenoxyphenyl)-1H-pyrazolo[3,4-d]pyrimidin-1-yl]-1-piperidinyl]-2-propen-1-one] | 98.68 | – | lower degrees of degradation than the amorphous form | 90.62 | – | very stable; also recorded: remaining stable | 98.64 | 98.62 | – | 98.60 | almost non-hygroscopic | – | – | – | – | – | –
C=CC(=O)N1CCC[C@@H](n2nc(-c3ccc(Oc4ccccc4)cc3)c3c(NC(=O)OCCCC)ncnc32)C1 [Amorphous, 1-[(3R)-3-[4-(butoxycarbonyl)-amino-3-(4-phenoxyphenyl)-1H-pyrazolo[3,4-d]pyrimidin-1-yl]-1-piperidinyl]-2-propen-1-one] | 99.07 | – | poor stability | 0.27 | – | – | 98.01 | 98.63 | – | 96.10 | – | Noticeable degradation | Significant degradation | almost complete degradation | – | – | –
C=CC(=O)N1CCC[C@@H](n2nc(-c3ccc(Oc4ccccc4)cc3)c3c(NC(=O)OCCCC)ncnc32)C1 [formula (I), 1-[(3R)-3-[4-(butoxycarbonyl)-amino-3-(4-phenoxyphenyl)-1H-pyrazolo[3,4-d]pyrimidin-1-yl]-1-piperidinyl]-2-propen-1-one] | – | – | – | – | – | – | – | – | – | – | – | – | – | – | highest | lowest | most rapidly
